Here are results for two compounds from US20240279562A1, “BIOACTIVE ADDITIVE FOR A FUEL, USES THEREOF, FUEL COMPOSITION, AND METHOD” (TUNAP GMBH & CO. KG, priority 2021, published 2024).

Holding throughout (format): cell-based
The subject of assay [1] is Yarrowia tropicalis ATCC 48138. Kind of assay: Antimicrobial activity according to ASTM E 1259-10, yeast. Particulars: FIG. 5; additive 1000 ppm, additive composition 2000 ppm or 5000 ppm, BIT 1000 ppm. The source says:
(§1) • “TUNAP active ingredient”: test solution containing 1000 ppm 2-(2-heptadec-8-enyl-2-imidazolin-1-yl)ethanol additive (example according to the disclosure). • “TUNAP Protection System Diesel”: test solutions containing 2000 ppm or 5000 ppm of the additive composition “1903391” described below (corresponding to approx. 1000 ppm or 2500 ppm of the active ingredient 2-(2-heptadec-8-enyl-2-imidazolin-1-yl)ethanol) (examples according to the disclosure). • “Tunap 685 (Protezione Diesel) Biocide with MBO”: test solution containing 1000 ppm of the biocide MBO (3,3-methylenebis (5-methyloxazolidine), (comparative sample). • “BIT”: test solution containing 1000 ppm of the biocide BIT (benzisothiazolinone) (comparative sample). • “blank”: fuel without addition of an additive (comparative sample) […]
(§2) The antimicrobial activity of the samples against the tested microorganisms was determined according to ASTM E 1259-10.

Assay [2] relates to Hormoconis resinae ATCC 20495. Briefly: Antimicrobial activity according to ASTM E 1259-10, kerosene fungus. The settings on record: FIG. 3, additive 1000 ppm, additive composition 2000 ppm or 5000 ppm; for killing of the tested kerosene fungus: MBO 1000 ppm.
Excerpt: • “TUNAP active ingredient”: test solution containing 1000 ppm 2-(2-heptadec-8-enyl-2-imidazolin-1-yl)ethanol additive (example according to the disclosure). • “TUNAP Protection System Diesel”: test solutions containing 2000 ppm or 5000 ppm of the additive composition “1903391” described below (corresponding to approx. 1000 ppm or 2500 ppm of the active ingredient 2-(2-heptadec-8-enyl-2-imidazolin-1-yl)ethanol) (examples according to the disclosure). • “Tunap 685 (Protezione Diesel) Biocide with MBO”: test solution containing 1000 ppm of the biocide MBO (3,3-methylenebis (5-methyloxazolidine), (comparative sample). • “BIT”: test solution containing 1000 ppm of the biocide BIT (benzisothiazolinone) (comparative sample). • “blank”: fuel without addition of an additive (comparative sample)
• at least 50% by weight 2-(2-heptadec-8-enyl-2-imidazolin-1-yl)ethanol • 10 to 20% by weight C10-C13 hydrocarbons • 5 to 10% by weight 2,6-di-tert-butyl-4-cresol • 5 to 10% by weight 2-ethylhexanol • 5 to 10% by weight 2-ethylhexyl nitrate • 5 to 10% by weight. of a mixture of bis(2-ethylhexyl)[(4-methyl-1H-1,2,3-benzotriazol-1-yl)methyl]amine, bis(2-ethylhexyl) [(4-methyl-2H-1,2,3-benzotriazol-2-yl)methyl]amine, bis(2-ethylhexyl) [(5-methyl-1H-1,2,3-benzotriazol-1-yl)methyl]amine, bis(2-ethylhexyl) [(5-methyl-2H-1,2,3-benzotriazol-2-yl)methyl]amine, bis(2-ethylhexyl) [(6-methyl-1H-1,2,3-benzotriazol-1-yl)methyl]amine
• Hormoconis resinae ATCC 20495 (“kerosene fungus”) • Pseudomonas aeruginosa DSM 15980 (“bacterium”) • Yarrowia tropicalis ATCC 48138 (“yeast”)
as §2

Assay [3] deals with Yarrowia tropicalis ATCC 48138. Briefly: Antimicrobial efficacy according to DIN EN 15457:2014-11, yeast fungus. The settings on record: FIG. 2; test solution 1% by weight additive vs 0.1% by weight MBO or MIT. The text has this:
(§3) • “TUNAP new”: Test solution containing 1% by weight 2-(2-heptadec-8-enyl-2-imidazolin-1-yl)ethanol additive (example according to the disclosure). • “Standard diesel bug biocide with MBO”: test solution containing 0.1% by weight of the biocide MBO (3,3-methylenebis (5-methyloxazolidine)) (comparative sample). • “MIT”: test solution containing 0.1% by weight of the biocide MIT (2-methyl-2H-isothiazol-3-one), (comparative sample). • “Pure fuel”: fuel without the addition of an additive (comparative sample)
(§4) • Hormoconis resinae ATCC 20495 (“kerosene fungus”) • Yarrowia tropicalis ATCC 48138 (“yeast fungus”)
(§5) The antimicrobial efficacy of the samples against the tested microorganisms was determined according to DIN EN 15457:2014-11.

Assay [4] deals with Hormoconis resinae ATCC 20495. Briefly: Antimicrobial efficacy according to DIN EN 15457:2014-11, kerosene fungus. Particulars: FIG. 1; test solution 1% by weight additive vs 0.1% by weight MBO or MIT.
Excerpt: as §3, §4, §5

Assay [5] has as its system Pseudomonas aeruginosa DSM 15980. Kind of assay: Antimicrobial activity according to ASTM E 1259-10, bacterium. The settings on record: FIG. 4; additive composition 2000 ppm or 5000 ppm, MBO 1000 ppm.
Excerpt: as §1, §2

As for `CCCCCCCCC=CCCCCCCCC1=NCCN1CCO` [additive according to the disclosure, 2-(2-heptadec-8-enyl-2-imidazolin-1-yl)ethanol], the “efficacy against the tested yeast compared with BIT” value in assay [1] is given as “significantly improved efficacy against the tested yeast than the conventional biocide BIT”. Further, the “efficacy against the tested kerosene fungus compared with BIT” value in assay [2] (BIT 1000 ppm) is on record as “significantly improved efficacy against the tested kerosene fungus than the conventional biocide BIT”. Besides, the “killing of the tested kerosene fungus” value in assay [2] is listed as “almost complete killing”. Further, in assay [3], the “efficacy against the tested yeast fungus compared with MBO and MIT” value was “at least a similar efficacy against the tested yeast fungus as the conventional but toxic biocides MBO and MIT”. Further, the “efficacy against the tested kerosene fungus compared with MBO and MIT” value in assay [4] is “significantly improved efficacy against the tested kerosene fungus than the conventional and also toxic biocides MBO and MIT”.

Regarding `CC1CN(CN2COC(C)C2)CO1` (stereo not shown) [MBO, 3,3-methylenebis (5-methyloxazolidine), reference compound], the “killing of the tested bacterium” value in assay [5] was “almost complete killing”. Moreover, the “killing of the tested kerosene fungus” value in assay [2] is given as “almost complete killing”.
